The source of these data is patent publication US8541601B2, “Piperazine dithioctate and pharmaceutical composition comprising the same” (Celltrion Chemical Research Institute, priority 2009, dated 2013).

The format of data set [1] is physicochemical. The settings on record: for remaining rate of the active ingredient, Initial: 0 h; for remaining rate of the active ingredient, 3 days: 72 h; for remaining rate of the active ingredient, 7 days: 168 h; for remaining rate of the active ingredient, 14 days: 336 h; for remaining rate of the active ingredient, 28 days: 672 h.
Another data set relates to rats. The settings on record: rat, in vivo; cited from earlier work.

For the molecule `NC(CO)(CO)CO.O=C(O)CCCCC1CCSS1` (stereo not shown) [Tromethamine thioctate, Tromethamine Thioctate], in data set [1], the “remaining rate of the active ingredient, Initial” value (“remaining rate … Initial” below) amounted to 100.0; the remaining rate of the active ingredient, 3 days is 100%; the remaining rate of the active ingredient, 7 days stood at 100%; the remaining rate of the active ingredient, 14 days worked out at 100%. Further, the remaining rate of the active ingredient, 28 days in data set [1] is 100%.
As to `O=C(O)CCCCC1CCSS1` (stereo not shown) [Thioctic acid], in data set [1], the “remaining rate … Initial” value was 100.0; the remaining rate of the active ingredient, 3 days was 99.8%; the remaining rate of the active ingredient, 7 days worked out at 99.6%; the remaining rate of the active ingredient, 14 days worked out at 98.9%. The remaining rate of the active ingredient, 28 days in data set [1] was 97.8%.
Take `O=C(O)CCCCC1CCSS1` (racemic) [Piperazine dithioctate, Piperazine Dithioctate]: in data set [1], the “remaining rate … Initial” value is reported as 100.0; the remaining rate of the active ingredient, 3 days was found to be 100%; the remaining rate of the active ingredient, 7 days was found to be 100%; the remaining rate of the active ingredient, 14 days came out at 100%. The same molecule had a remaining rate of the active ingredient, 28 days in data set [1] of 100%.
As to `C1CNCCN1` [piperazine], the “LD50 (the lethal dose causing death in 50% of rats on oral administration)” value with rats is reported as 1900 mg/kg.
